Active and inactive are the calls of the source. The calls are words filed in the database; no cut-off is given here.
What was measured:
Lactoperoxidase = Lactoperoxidase (Bos taurus, UniProt P80025); experiment: Inhibition of Bos taurus (bovine) milk lactoperoxidase-catalyzed iodination of L-tyrosine substrate by reverse phase HPLC analysis
[1] = biological target: Lactoperoxidase (Bos taurus) (UniProt P80025); experiment: Non-competitive inhibition of Bos taurus (bovine) milk lactoperoxidase using varying concentration of L-tyrosine and fixed concentration of H2O2 as substrate by Lineweaver-burk plot analysis
[2] = biological target: Lactoperoxidase (Bos taurus) (UniProt P80025); experiment: Non-competitive inhibition of Bos taurus (bovine) milk lactoperoxidase using fixed concentration of L-tyrosine and varying concentration of H2O2 as substrate by Lineweaver-burk plot analysis
[3] = biological target: Lactoperoxidase (Bos taurus) (UniProt P80025); experiment: Irreversible inhibition of Bos taurus (bovine) milk lactoperoxidase using L-tyrosine as substrate at 30 uM in presence of 0.08 to 0.8 mM H2O2 by reverse phase HPLC analysis

| Structure (SMILES) | IC50 (Lactoperoxidase) | further results |
| --- | --- | --- |
| S=c1oc(-c2cccs2)cc2ccccc12 | 14.3 µM | – |
| Cc1ccc(-c2cc3ccccc3c(=S)o2)cc1 | 6.2 µM | inhibition [1]: Active; inhibition [2]: Active |
| O=c1oc(-c2ccco2)cc2ccccc12 | > 200 µM | – |
| CC(C)(C)c1cc2ccccc2c(=S)o1 | 21.9 µM | – |
| S=c1oc(-c2ccc(Cl)cc2)cc2ccccc12 | 26.4 µM | – |
| S=c1oc(-c2ccccc2)cc2ccccc12 | 13.9 µM | – |
| O=c1oc(-c2ccccc2)cc2ccccc12 | > 200 µM | – |
| O=c1oc(-c2ccc(Cl)cc2)cc2ccccc12 | 105 µM | – |
| S=c1oc(-c2ccco2)cc2ccccc12 | 17.8 µM | – |
| CCCCc1cc2ccccc2c(=S)o1 | 17.4 µM | – |
| S=c1oc(-c2ccoc2)cc2ccccc12 | 26.5 µM | – |
| S=c1oc(-c2cccc3ccccc23)cc2ccccc12 | 5.1 µM | inhibition [1]: Active; inhibition [2]: Active; inhibition [3]: Active |
| O=c1oc(-c2cccc3ccccc23)cc2ccccc12 | 34.6 µM | – |
| S=c1oc(C2CCCCC2)cc2ccccc12 | 5.5 µM | – |
| COc1ccc(-c2cc3ccccc3c(=O)o2)cc1 | > 200 µM | – |
| Cc1ccc(-c2cc3ccccc3c(=O)o2)cc1 | 93.8 µM | – |
| COc1ccc(-c2cc3ccccc3c(=S)o2)cc1 | 8.4 µM | inhibition [3]: Active |
| Cn1cc[nH]c1=S [METHIMAZOLE] | 8.4 µM | – |
